Results as given in patent US11161856B2 (H. Lundbeck A/S, priority 2017, dated 2021).

Legend:
Assay type in all cases: biochemical
MGLL = target: T1, MGLL (Mus musculus, UniProt O35678); experiment: In vitro competitive activity-based protein profiling, mouse brain proteome (MGLL); details: concentration not given (μM)
T1 construct: Brain; from tissue; host or cells: mouse brain proteome
T1 sequence (O35678 1-303): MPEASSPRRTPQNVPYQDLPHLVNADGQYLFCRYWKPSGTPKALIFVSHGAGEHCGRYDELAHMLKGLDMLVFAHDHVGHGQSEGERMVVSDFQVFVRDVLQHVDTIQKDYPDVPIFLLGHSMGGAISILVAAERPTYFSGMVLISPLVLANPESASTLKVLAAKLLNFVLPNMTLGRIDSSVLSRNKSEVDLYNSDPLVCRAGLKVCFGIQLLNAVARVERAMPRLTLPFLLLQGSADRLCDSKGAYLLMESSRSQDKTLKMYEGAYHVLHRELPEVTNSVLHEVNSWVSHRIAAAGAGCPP

MAGL = target: T2, MAGL (Homo sapiens, UniProt Q99685); experiment: In vitro competitive activity-based protein profiling (FP-Rh or HT-01 probe, gel-based); details: for % Inh MGLL PFC (Human, μM): prefrontal cortex (PFC) proteome; for % Inh MGLL PFC (Human, μM) / % Inh MGLL PC3 (Human, μM): concentration not given (μM)
T2 construct: Proteomes (human prefrontal cortex or cell membrane fractions); from tissue
T2 sequence (Q99685 1-303): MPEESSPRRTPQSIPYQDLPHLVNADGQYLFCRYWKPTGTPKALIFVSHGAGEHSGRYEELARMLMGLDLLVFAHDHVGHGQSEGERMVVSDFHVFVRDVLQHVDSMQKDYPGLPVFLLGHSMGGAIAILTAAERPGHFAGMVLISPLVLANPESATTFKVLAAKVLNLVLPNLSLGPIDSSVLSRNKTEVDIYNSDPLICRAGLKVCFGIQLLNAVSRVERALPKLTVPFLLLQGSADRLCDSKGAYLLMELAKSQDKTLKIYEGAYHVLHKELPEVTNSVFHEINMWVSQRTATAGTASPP
Procedure, shortened: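 Human prefrontal cortex or cell membrane proteomes (1.0 mg/mL total protein) were preincubated with varying inhibitor concentrations for 30 min at 37° C. FP-Rh or HT-01 probe (50 μM DMSO stock) was then added for 30 min at room temperature, and samples were quenched in SDS loading buffer and resolved by SDS-PAGE.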

ABHD6 = target: T3, ABHD6 (Mus musculus, UniProt Q8R2Y0); experiment: In vitro competitive activity-based protein profiling, mouse brain proteome (ABHD6); details: mouse brain proteome; concentration not given (μM)
T3 construct: Brain; from tissue; host or cells: mouse brain proteome
T3 sequence (Q8R2Y0 1-336): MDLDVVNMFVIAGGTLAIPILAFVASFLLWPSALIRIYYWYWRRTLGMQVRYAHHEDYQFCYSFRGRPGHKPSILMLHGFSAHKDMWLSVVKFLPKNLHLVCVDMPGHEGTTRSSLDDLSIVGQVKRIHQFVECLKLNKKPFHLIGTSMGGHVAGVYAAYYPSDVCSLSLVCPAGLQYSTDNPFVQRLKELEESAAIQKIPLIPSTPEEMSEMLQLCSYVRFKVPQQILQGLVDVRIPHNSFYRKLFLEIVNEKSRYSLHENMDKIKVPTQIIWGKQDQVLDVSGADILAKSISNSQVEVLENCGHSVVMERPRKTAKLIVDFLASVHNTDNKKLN
Method: [The source words this procedure for another target and reports this target under the same test.] In Vitro Competitive Activity-Based Protein Profiling.
Proteomes (human prefrontal cortex or cell membrane fractions) (50 μL, 1.0 mg/mL total protein concentration) were preincubated with varying concentrations of inhibitors at 37° C. After 30 min, FP-Rh or HT-01 (1.0 μL, 50 μM in DMSO) was added and the mixture was incubated for another 30 min at room temperature. Reactions were quenched with SDS loading buffer (15 μL-4×) and run on SDS-PAGE.

| SMILES | % Inh MGLL Brain (Mouse, μM) (MGLL) | % Inh MGLL PFC (Human, μM) (MAGL) | % Inh ABHD6 Brain (Mouse, μM) (ABHD6) | % Inh MGLL PC3 (Human, μM) (MAGL; PC3 cell proteome) | IC50 (MAGL; PC3 cell proteome, read-out: IC50 MGLL PC3 (Human)) [nM] |
| --- | --- | --- | --- | --- | --- |
| O=C(O)C1CN(c2cc(CN3CC4(CCN(C(=O)OC(C(F)(F)F)C(F)(F)F)CC4)C3)cc(C(F)(F)F)c2)CCO1 (stereo not shown) [Example 100, 4-(3-((7-(((1,1,1,3,3,3-Hexafluoropropan-2-yl)oxy)carbonyl)-2,7-diazaspiro[3,5]nonan-2-yl)methyl)-5-(trifluoromethyl)phenyl)morph-oline-2-carboxylic acid] | ### (### is ≥75%) | ### (### is ≥75%) | ### (### is ≥75%) |  |  |
| O=C(O)C1CCN(c2cc(CN3CC4(CCN(C(=O)OC(C(F)(F)F)C(F)(F)F)CC4)C3)cc(C(F)(F)F)c2)C1 (stereo not drawn) [Example 104, l-(3-((7-(((1,1,1,3,3,3-Hexailuoropropan-2-yl)oxy)carbonyl)-2,7-diazaspiro[3.5]nonan-2-yl)methyl)-5-(trifluoromethyl)phenyl) pyrrolidine-3-carboxylic acid] | ### (### is ≥75%) | ### (### is ≥75%) | ### (### is ≥75%) |  |  |
| O=C(O)[C@H]1CCCN(c2cc(C(F)(F)F)ccc2CN2CC3(CCN(C(=O)OC(C(F)(F)F)C(F)(F)F)CC3)C2)C1 [Example 111, (S)-1-(2-((7-(((1,1,1,3,3,3-hexafluoropropan-2-yl)oxy)carbonyl)-2,7-diazaspiro[3,5]nonan-2-yl)methyl)-5-(trifluoromethyl)phenyl) piperidine-3-carboxylic acid] | ### (### is ≥75%) | ### (### is ≥75%) | ### (### is ≥75%) |  |  |
| O=C(O)[C@@H]1CCCN(c2cc(CN3CC4(CCN(C(=O)OC(C(F)(F)F)C(F)(F)F)CC4)C3)cc(C(F)(F)F)c2)C1 [Example 105, (R)-1-(3-((7-(((1,1,1,3,3,3-Hexafluoropropan-2-yl)oxy)carbonyl)-2,7-diazaspiro[3,5]nonan-2-yl)methyl)-5-(trifluoromethyl)phenyl) piperidine-3-carboxylic acid] | ### (### is ≥75%) | ### (### is ≥75%) | ### (### is ≥75%) |  |  |
| O=C(O)C1COCCN1c1cc(C(F)(F)F)ccc1CN1CC2(CCN(C(=O)OC(C(F)(F)F)C(F)(F)F)CC2)C1 (stereo not shown) [Example 113, 4-(2-((7-(((1,1,1,3,3,3-Hexafluoropropan-2-yl)oxy)carbonyl)-2,7-diazaspiro[3.5]nonan-2-yl)methyl)-5-(trifluoromethyl)phenyl)moiph oline-3-carboxylic acid] | ## (## is between 25 and 75%) | # (# is ≤25%) | # (# is ≤25%) |  |  |
| CN(Cc1cc(C(F)(F)F)cc(C2(C(=O)O)CCCC2)c1)C1(C)CCN(C(=O)OC(C(F)(F)F)C(F)(F)F)CC1 [Example 138, l-(3-{[(1-{[(1,1,1,3,3,3-Hexafluoropropan-2-yl)oxy]carbonyl}-4-methylpiperidin-4-yl)(methyl)ainino]methyl}-5-(trifluoromethyl)phenyl)cyclop entane-1-carboxylic acid] | ### (### is ≥75%) |  | ### (### is ≥75%) | ### (### is ≥75%) |  |
| O=C(O)C1CCN(c2c(Cl)cccc2CN2CCC3(CC2)CCN(C(=O)OC(C(F)(F)F)C(F)(F)F)C3)CC1 [Example 218, l-(2-Chloro-6-{(2-(((1,1,1,3,3,3-hexafluoropropan-2-yl)oxy)carbonyl)-2,8-diazaspiro[4.5]decan-8-yl)methyl)phenyl)piperidine-4-carboxylic acid] | ### (### is ≥75%) | ### (### is ≥75%) | # (# is ≤25%) |  |  |

Continued, values first:

| % Inh MGLL Brain (Mouse, μM) (MGLL) | % Inh MGLL PFC (Human, μM) (MAGL) | % Inh ABHD6 Brain (Mouse, μM) (ABHD6) | % Inh MGLL PC3 (Human, μM) (MAGL; PC3 cell proteome) | IC50 (MAGL; PC3 cell proteome, read-out: IC50 MGLL PC3 (Human)) [nM] | SMILES |
| --- | --- | --- | --- | --- | --- |
| ### (### is ≥75%) | ### (### is ≥75%) | # (# is ≤25%) |  |  | O=C(O)CN1CC2(CCN(c3cc(CN4CCCC45CCN(C(=O)OC(C(F)(F)F)C(F)(F)F)CC5)cc(C(F)(F)F)c3)CC2)C1 [Example 158, 2-(7-(3-((8-(((1,1,1,3,3,3-Hexafluoropropan-2-yl)oxy)carbonyl)-1,8-diazaspiro[4.5]decan-1-yl)methyl)-5-(trifluoromethyl)phenyl)-2,7-diazaspiro[3,5]nonan-2-yl)acetic acid] |
| ### (### is ≥75%) | ### (### is ≥75%) | # (# is ≤25%) |  |  | CC1(C(=O)O)CCN(c2cc(C(F)(F)F)ccc2CN2CC3(CCN(C(=O)OC(C(F)(F)F)C(F)(F)F)CC3)C2)C1 (stereo not drawn) [Example 115, l-(2-((7-(((1,1,1,3,3,3-Hexafluoropropan-2-yl)oxy)carbonyl)-2,7-diazaspiro[3,5]nonan-2-yl)methyl)-5-(trifluoromethyl)phenyl)-3-methylpyrrolidine-3-carboxylic acid] |
| ### (### is ≥75%) |  | # (# is ≤25%) | ### (### is ≥75%) | < 100 | O=C(O)[C@H]1CCCN1C1CCN(c2cc(C(F)(F)F)ccc2CN2CCCC23CCN(C(=O)OC(C(F)(F)F)C(F)(F)F)CC3)CC1 [Example 160, (1-(2-((8-(((1,1,1,3,3,3-Hexafluoropropan-2-yl)oxy)carbonyl)-1,8-diazaspiro[4.5]decan-l-yl)methyl)-5-(trifluoromethyl)phenyl)piperidin-4-yl)-D-proline] |
| ### (### is ≥75%) |  | # (# is ≤25%) | ### (### is ≥75%) |  | CC(C)(C#Cc1ccccc1CN1CCCC12CCN(C(=O)OC(C(F)(F)F)C(F)(F)F)CC2)C(=O)O [Example 145, 4-{2-[(8-{[(1,1,1,3,3,3-Hexafluoropropan-2-yl)oxy]carbonyl}-1,8-diazaspiro[4.5]decan-1-yl)methyl]phenyl}-2,2-dimethylbut-3-ynoic acid] |
| ### (### is ≥75%) |  | # (# is ≤25%) | ### (### is ≥75%) |  | CC(C)(C#Cc1c(F)cccc1CN1CCCC12CCN(C(=O)OC(C(F)(F)F)C(F)(F)F)CC2)C(=O)O [Example 147, 4-{2-Fluoro-6-[(8-{[(1,1,1,3,3,3-hexafluoropropan-2-yl)oxy]carbonyl}-1,8-diazaspiro[4.5]decan-1-yl)methyl]phenyl}-2,2-dimethylbut-3-ynoic acid] |
| ### (### is ≥75%) |  | # (# is ≤25%) | ### (### is ≥75%) |  | O=C(OC(C(F)(F)F)C(F)(F)F)N1CCC2(CCCN2Cc2cc(Cl)cc(C3(C(=O)O)CCCC3)c2)CC1 [Example 134, l-{3-Chloro-5-[(8-{[(1,1,1,3,3,3-hexafluoropropan-2-yl)oxy]carbonyl}-1,8-diazaspiro[4.5]decan-1-yl)methyl]phenyl}cyclopentane-1-carboxylic acid] |
| ### (### is ≥75%) |  | ### (### is ≥75%) | ### (### is ≥75%) |  | CC(C)(C#Cc1cc(CN2CCCC23CCN(C(=O)OC(C(F)(F)F)C(F)(F)F)CC3)cc(C(F)(F)F)c1)C(=O)O [Example 140, 4-{3-[(8-{[(1,1,1,3,3,3-Hexafluoropropan-2-yl)oxy]carbonyl}-1,8-diazaspiro[4.5]decan-1-yl)methyl]-5-(trifluoromethyl)phenyl}-2,2-dimethylbut-3-ynoic acid] |
| ### (### is ≥75%) |  | # (# is ≤25%) | ### (### is ≥75%) |  | CN(Cc1ccccc1C1(C(=O)O)CCCC1)C1(C)CCN(C(=O)OC(C(F)(F)F)C(F)(F)F)CC1 [Example 141, 1-(2-{[(1-{[(1,1,1,3,3,3-Hexafluoropropan-2-yl)oxy]carbonyl}-4-methylpiperidin-4-yl)(methyl)amino]methyl}phenyl)cyclopentane-1-carboxylic acid] |
